Assays:
[1] = test system: primary human mesenchymal stem cells (hMSCs); assay: Induction of chondrogenesis in hMSCs (nodule area, Rhodamine B / Nile Red); assay type: cell-based; settings: TGF-β3 as positive control; for Emax: read-out: Max. Activity as % TGF-β3 activity; for EC50: concentration required to induce 50% levels of chondrogenesis, read-out: Conc (nM) of 50% TGF-β3 activity
Procedure, shortened: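 Primary hMSCs (passage 3–6) in incomplete chondrogenic induction medium were treated 6 days at 37° C. with 1:3 dilutions (2700–10 nM in 96-well or 5000–2.2 nM in 384-well; 0.03% DMSO). Rhodamine B/Nile Red-stained nodule area was imaged, normalized to DMSO wells, and EC50 was set against TGF-β3 (10 ng/mL).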

[2] = test system: IL-6 in human monocyte cell line (THP-1 cells); assay: IL-6 inhibition in LPS-stimulated THP-1 cells (HTRF); assay type: cell-based; settings: IL-6 in LPS-stimulated THP-1 cells; for EC50: HTRF; for inhibition at 10 µM: read-out: percent inhibition in brackets beside EC50 >10 μM
Procedure, shortened: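 Readout is the 665/620 nm HTRF ratio for secreted IL-6, normalized to DMSO wells, with EC50 from a variable-slope four-parameter fit, or % inhibition at 10 μM when above 10 μM. Cells (1% FBS, 24 h beforehand) got compound for 2 h, then LPS 500 ng/mL for 22 h at 37° C; top dose 10 μM, 0.1% DMSO.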

| Compound | EC50 [1] [nM] | EC50 [2] [nM] | Emax [1] [%] | inhibition at 10 µM [2] [%] |
| --- | --- | --- | --- | --- |
| CN1CCN(c2nccc3[nH]c(-c4n[nH]c5ccc(-c6cncc(N)c6)nc45)nc23)CC1 [Compound 227, 5-(3-(4-(4-Methylpiperazin-1-yl)-1H-imidazo[4,5-c]pyridin-2-yl)-1H-pyrazolo[4,3-b]pyridin-5-yl)pyridin-3-amine] | 100 | > 10000 | 135 | 32.3 |
| CCC(=O)Nc1cncc(-c2ccc3[nH]nc(-c4nc5c(N6CCCCC6)nccc5[nH]4)c3n2)c1 [Compound 169, N-(5-(3-(4-(Piperidin-1-yl)-1H-imidazo[4,5-c]pyridin-2-yl)-1H-pyrazolo [4,3-b]pyridin-5-yl)pyridin-3-yl)propionamide] | 30 | > 10000 | 69 | 42.6 |
| Cc1cn(-c2nccc3[nH]c(-c4n[nH]c5ccc(-c6cncc(NC(=O)C(C)(C)C)c6)nc45)nc23)cn1 [Compound 204, N-(5-(3-(4-(4-Methyl-1H-imidazol-1-yl)-1H-imidazo[4,5-c]pyridin-2-yl)-1H-pyrazolo[4,3-b]pyridin-5-yl)pyridin-3-yl)pivalamide] | 30 | > 10000 | 70 | 41.8 |

These reach a lower EC50 [1]. Values come first.

| EC50 [1] [nM] | EC50 [2] [nM] | Compound | Emax [1] [%] | inhibition at 10 µM [2] [%] |
| --- | --- | --- | --- | --- |
| 7 | > 10000 | CCC(=O)Nc1cncc(-c2ccc3[nH]nc(-c4nc5c(-c6cccs6)nccc5[nH]4)c3n2)c1 [Compound 337, N-(5-(3-(4-(Thiophen-2-yl)-1H-imidazo[4,5-c]pyridin-2-yl)-1H-pyrazolo [4,3-b]pyridin-5-yl)pyridin-3-yl)propionamide] | 179 | 0 |
| 10 | > 10000 | CC(C)(C)CC(=O)Nc1cncc(-c2ccc3[nH]nc(-c4nc5cnccc5[nH]4)c3n2)c1 [Compound 268, N-(5-(3-(1H-Imidazo[4,5-c]pyridin-2-yl)-1H-pyrazolo[4,3-b]pyridin-5-yl)pyridin-3-yl)-3,3-dimethylbutanamide] | 54 | 19 |
| 10 | > 10000 | CC(C)CC(=O)Nc1cncc(-c2ccc3[nH]nc(-c4nc5c(-c6ccc(Cl)s6)nccc5[nH]4)c3n2)c1 [Compound 1037, N-(5-(3-(4-(5-Chlorothiophen-2-yl)-1H-imidazo[4,5-c]pyridin-2-yl)-1H-pyrazolo [4,3-b]pyridin-5-yl)pyridin-3-yl)-3-methylbutanamide] | 104 | 18.1 |

Source: patent US10195185B2, “3-(1H-imidazo[4,5-C]pyridin-2-yl)-1H-pyrazolo[4,3-B]pyridines and therapeutic uses thereof” (Samumed, LLC, priority 2015, dated 2019)
